The nature of the series: Pharmacokinetics analysis in human clinical trial FLE-001, inhalation versus intravenous flecainide, venous plasma. It counts as in vivo. The following applies: healthy adult volunteers, read-out: Peak plasma concentration of flecainide (Cmax). The procedure: This example describes pharmacokinetics (PK) analysis performed during a human clinical trial (FLE-001) in which inhalation administration of flecainide was tested for safety and compared against intravenous administration of flecainide.
This was an open label non-randomized crossover in a cohort of 6 evaluable healthy adult volunteers. This part of the study consisted of two periods with each subject receiving a total of 2 doses of flecainide, one dose in each period. In Period 1, 3 subjects received flecainide acetate solution by inhalation at the dose level of 30 mg estimated lung total dose (eTLD). and 3 subjects received a single dose of 2 mg/kg (or 150 mg, whichever is less) via a 10 min intravenous (IV) infusion of flecainide (Tambocor™ Injection; approved and used in clinical practice in Australia). In Period 2, the subjects who received flecainide inhalation solution in Period 1 now received a single dose of IV flecainide (2 mg/kg or 150 mg, whichever is less, via a 10 min infusion), while the subjects who received IV flecainide in Period 1 now received flecainide inhalation solution (30 mg eTLD). […] The interpretation is that there was no carry over effect of treatment or other changes in the subjects' vital signs and ECG intervals between the two periods. […]

Like-named read-outs stand apart in the source and are kept apart here.

For `O=C(NCC1CCCCN1)c1cc(OCC(F)(F)F)ccc1OCC(F)(F)F` (centres unmarked) [flecainide], the Cmax runs as follows: (intravenous 2 mg/kg (or 150 mg, whichever is less), 10 min infusion, mean±SD) 749 ± 308 ng/mL; (inhaled, inhalation of flecainide acetate solution, 30 mg eTLD) 120 ng/mL.

Source of the values: patent US20210228825A1, “METHODS FOR DIAGNOSING BRUGADA SYNDROME USING AN AEROSOL” (InCarda Therapeutics, Inc., priority 2018, published 2021).
